Each structure is given as a SMILES string.

The results in this text go back to patent US12091398B2, “PD-L1 antagonist compound” (ADLAI NORTYE BIOPHARMA CO., LTD., priority 2019, dated 2024).

In one test the test system is PD-1/PD-L1 interaction. In words: Cell based PD-1/PD-L1 NFAT reporter assay. On the set-up: species or system human. Conditions: Homo sapiens, 6 h, PD-1/NFAT-Reporter-Jurkat cells co-cultured with TCR activator/PD-L1-CHO cells; 6 hour incubation; luciferase; calibrated to Atezolizumab 10 nM; read-out: Absolute EC50. The protocol: Cell Based PD-1/PD-L1 NFAT Reporter Assay
Compounds of the present patent were tested in a cell based PD-1/PD-L1 NFAT reporter assay.
The cell-based luciferase reporter assay is used for monitoring the PD-1/PD-L1 inhibitor by characterizing the biological activity of PD-1: PD-L1 interactions in cellular context. PD-1/NFAT-Reporter-Jurkat cells stably over-expressing human PD-1 with NFAT reporter are used as effector cells. TCR activator/PD-L1—CHO cells over-expressing PD-L1 and an engineered T cell receptor (TCR) activator are used as target cells. When these two cells are co-cultivated, TCR complexes on effector cells are activated by TCR activator on target cells, resulting in expression of the NFAT luciferase reporter. However, PD1 and PD-L1 (or PD-L2) ligation prevents TCR activation and suppresses the NFAT-responsive luciferase activity. This inhibition can be specifically reversed by anti-PD1 or anti-PD-L1 inhibitors. PD1/PD-L1 inhibitors block PD1:PD-L1 interaction and promote TCR activation, resulting in reactivation of the NFAT responsive luciferase reporter.
PD-1/NFAT—Reporter—Jurkat cell (Cat: 60535) and TCR activator/PD-L1—CHO cell (Cat: 60536) were purchased from BPS Bioscience. Anti-human PD-L1 antibody (Atezolizumab, Cat: A2004) was purchased from Selleck; luciferase reporter gene expression detection kit (ONE-Glo™ Luciferase Assay System, Cat: E6120) was purchased from Promega; multifunction plate reader (SpectraMax i3x) was purchased from Molecular Devices.
PD-1/NFAT—Reporter—Jurkat cells and TCR activator/PD-L1—CHO cells were cultured in recommended media respectively.
Harvest TCR activator/PD-L1-CHO cells from culture and seed cells at a density of 35,000 cells per well into 96-well microplate in 100 µl of growth medium. Incubate cells at 37° C. in a CO2 incubator overnight. Next day, discard the culture media, add diluted compound in assay medium for 30 min. Anti-PD-L1 antibody (Atezolizumab, final concentration 10 nM) and 0.1% DMSO were the positive and negative control, respectively. Harvest the PD-1/NFAT-reporter-Jurkat cells by centrifugation and add to the wells. After 6 hour incubation, perform luciferase assay using the ONE-Glo™ Luciferase Assay System, following the manufacturer's assay protocol.
Anti-PD-L1 antibody (Atezolizumnab, 10 nM) was used as positive control to calibrate the inhibition rate using the following equation: % inhibition=(Sample luminescence/Average vehicle group luminescence−1)/(Average PD-L1 group luminescence/Average vehicle group luminescence−1)×100%.
As a reminder, the EC50 is the concentration needed to bring the measured effect to its halfway point. As to `N#Cc1cc(COc2cc(OCc3cccc(-c4cccc5c4cnn5CCCN4CC[C@@H](O)C4)c3Br)c(Cl)cc2CN[C@@H](CO)C(=O)O)ccn1` [Compound 1], the EC50 is 340 nM.

For the compound `N#Cc1cncc(COc2cc(OCc3cccc(-c4cccc5c4ccn5CCCN4CC[C@@H](O)C4)c3Br)c(Cl)cc2CN[C@@H](CO)C(=O)O)c1` [Compound 3], the EC50 is 2380 nM.

`Cc1nn(CCCN2CC[C@@H](O)C2)c2cccc(-c3cccc(COc4cc(OCc5cncc(C#N)c5)c(CN[C@@H](CO)C(=O)O)cc4Cl)c3Br)c12` [Compound 4]: the concentration giving a half-maximal response (EC50) was determined as 5490 nM.

Take `N#Cc1cncc(COc2cc(OCc3cccc(-c4cccc5c4cnn5CCCN4CCC(O)CC4)c3Br)c(Cl)cc2CN[C@@H](CO)C(=O)O)c1` [Compound 6]: the EC50 amounted to 266 nM.

For `CC(CO)(CO)NCc1cc(Cl)c(OCc2cccc(-c3cccc4c3cnn4CCCCN3CC[C@@H](O)C3)c2Br)cc1OCc1cncc(C#N)c1` [Compound 7], the half-maximal effective concentration (EC50) was determined as 338 nM.

As to `N#Cc1cncc(COc2cc(OCc3cccc(-c4cccc5c4cnn5CCCCCN4CC[C@@H](O)C4)c3Br)c(Cl)cc2CN[C@@H](CO)C(=O)O)c1` [Compound 9], the EC50 stood at 367 nM.

For the compound `CC(CO)(NCc1cc(Cl)c(OCc2cccc(-c3cccc4c3cnn4CCCN3CC[C@@H](O)C3)c2Br)cc1OCc1cncc(C#N)c1)C(=O)O` (stereo partly shown) [Compound 10], the EC50 was determined as 412 nM.

Turning to `CC(CO)(NCc1cc(Cl)c(OCc2cccc(-c3cccc4c3cnn4CCCCN3CC[C@@H](O)C3)c2Br)cc1OCc1cncc(C#N)c1)C(=O)O` (stereo partly shown) [Compound 12], the EC50 worked out at 289 nM.

Regarding `CC(CO)(CO)NCc1cc(Cl)c(OCc2cccc(-c3cccc4c3cnn4CCCN3CCC(O)CC3)c2Br)cc1OCc1cncc(C#N)c1` [Compound 13], the EC50 was determined as 242 nM.

Regarding `CC(CO)(CO)NCc1cc(Cl)c(OCc2cccc(-c3cccc4c3cnn4[C@H]3CC[C@H](N4CC[C@@H](O)C4)CC3)c2Br)cc1OCc1cncc(C#N)c1` [Compound 14], the EC50 is 323 nM.

Regarding `CC(CO)(CO)NCc1cc(Cl)c(OCc2cccc(-c3cccc4c3cnn4CCCCN(CCO)CCO)c2Br)cc1OCc1cncc(C#N)c1` [Compound 15], the 50% effective concentration (EC50) came out at 3240 nM.

Regarding `CC(CO)(CO)NCc1cc(Cl)c(OCc2cccc(-c3cccc4c3cnn4CCCCNCCO)c2Br)cc1OCc1cncc(C#N)c1` [Compound 16], the EC50 came to 9360 nM.

Take `CC1(C)OCC(N2CCC(n3ncc4c(-c5cccc(COc6cc(OCc7cncc(C#N)c7)c(CN[C@@H](CO)C(=O)O)cc6Cl)c5Br)cccc43)CC2)CO1` [Compound 17]: the EC50 was determined as 1760 nM.

With `C[C@@](CO)(NCc1cc(Cl)c(OCc2cccc(-c3cccc4c3cnn4CCCN3CC[C@@H](O)C3)c2Br)cc1OCc1cncc(C#N)c1)C(=O)O` [Compound 18], the EC50 was 235 nM.

On to `N#Cc1cncc(COc2cc(OCc3cccc(-c4cccc5c4cnn5CC4CCC(N5CC[C@@H](O)C5)CC4)c3Br)c(Cl)cc2CN[C@@H](CO)C(=O)O)c1` (stereo partly shown) [Compound 19], for which the EC50 is 764 nM.

Take `CC(CO)(CO)NCc1cc(Cl)c(OCc2cccc(-c3cncc4c3cnn4CCCCN3CC[C@@H](O)C3)c2Br)cc1OCc1cncc(C#N)c1` [Compound 21]: the EC50 turned out to be 3540 nM.

As for `N#Cc1cncc(COc2cc(OCc3cccc(-c4cccc5c4cnn5C4CCN(C(CO)CO)CC4)c3Br)c(Cl)cc2CN[C@@H](CO)C(=O)O)c1` [Compound 22], the EC50 turned out to be 1130 nM.

Take `N#Cc1cncc(COc2cc(OCc3cccc(-c4cccc5c4cnn5CCCCN4CCC[C@H]4C(=O)O)c3Br)c(Cl)cc2CN[C@@H](CO)C(=O)O)c1` [Compound 23]: the EC50 stood at 608 nM.

On to `N#Cc1cncc(COc2cc(OCc3cccc(-c4cccc5c4cnn5CCCN4CC[C@@H](O)C4)c3C3CC3)c(Cl)cc2CN[C@@H](CO)C(=O)O)c1` [Compound 24], for which the EC50 was over 10000 nM.

As to `Cc1c(COc2cc(OCc3cncc(C#N)c3)c(CNC(C)(CO)CO)cc2Cl)cccc1-c1cccc2c1cnn2CCCN1CC[C@@H](O)C1` [Compound 25], the EC50 stood at 138 nM.

For `Cc1c(COc2cc(OCc3cncc(C#N)c3)c(CN[C@@H](CO)C(=O)O)cc2Cl)cccc1-c1ccnc2c1cnn2CCCCN1CC[C@@H](O)C1` [Compound 26], the EC50 worked out at 1830 nM.

On to `Cc1c(COc2cc(OCc3cncc(C#N)c3)c(CN[C@@H](CO)C(=O)O)cc2Cl)cccc1-c1cccc2c1cnn2CCCCN1CC[C@@H](O)C1` [Compound 27], for which the EC50 was 643 nM.

Turning to `N#Cc1cncc(COc2cc(OCc3cccc(-c4cccc5c4cnn5CCCCN4CC[C@@H](O)C4)c3[N+](=O)[O-])c(Cl)cc2CN[C@@H](CO)C(=O)O)c1` [Compound 28], the 50% effective concentration (EC50) was found to be 726 nM.

For `N#Cc1cncc(COc2cc(OCc3cccc(-c4cccc5c4cnn5CCCCN4CC[C@@H](O)C4)c3N)c(Cl)cc2CN[C@@H](CO)C(=O)O)c1` [Compound 29], the EC50 is over 1100 nM.

Regarding `CN(C)c1c(COc2cc(OCc3cncc(C#N)c3)c(CN[C@@H](CO)C(=O)O)cc2Cl)cccc1-c1cccc2c1cnn2CCCCN1CC[C@@H](O)C1` [Compound 31], the EC50 was over 10000 nM.

For the compound `N#CCOc1cc(OCc2cccc(-c3cccc4c3cnn4CCCCN3CC[C@@H](O)C3)c2Br)c(Cl)cc1CN[C@@H](CO)C(=O)O` [Compound 34], the EC50 turned out to be 5780 nM.

Take `N#CCCCOc1cc(OCc2cccc(-c3cccc4c3cnn4CCCCN3CC[C@@H](O)C3)c2Br)c(Cl)cc1CN[C@@H](CO)C(=O)O` [Compound 35]: the EC50 was determined as 1540 nM.

On to `N#CCCCCOc1cc(OCc2cccc(-c3cccc4c3cnn4CCCCN3CC[C@@H](O)C3)c2Br)c(Cl)cc1CN[C@@H](CO)C(=O)O` [Compound 36], for which the EC50 came to 2340 nM.

Turning to `N#CCCCCCOc1cc(OCc2cccc(-c3cccc4c3cnn4CCCCN3CC[C@@H](O)C3)c2Br)c(Cl)cc1CN[C@@H](CO)C(=O)O` [Compound 37], the EC50 was determined as 1920 nM.

Turning to `NC(=O)COc1cc(OCc2cccc(-c3cccc4c3cnn4CCCCN3CC[C@@H](O)C3)c2Br)c(Cl)cc1CN[C@@H](CO)C(=O)O` [Compound 38], the concentration giving a half-maximal response (EC50) amounted to 7640 nM.

The same test, now with this note: PD-1/NFAT-Reporter-Jurkat cells co-cultured with TCR activator/PD-L1-CHO cells; 6 hour incubation; luciferase; calibrated to Atezolizumab 10 nM; read-out: Absolute EC50.
`N#Cc1cncc(COc2cc(OCc3cccc(-c4cccc5c4cnn5CCCN4CC[C@@H](O)C4)c3Br)c(Cl)cc2CN[C@@H](CO)C(=O)O)c1` [Compound 2]: the EC50 was found to be 310 nM.

`N#Cc1cncc(COc2cc(OCc3cccc(-c4cccc5c4cnn5CCCCN4CC[C@@H](O)C4)c3Br)c(Cl)cc2CN[C@@H](CO)C(=O)O)c1` [Compound 5]: the EC50 was found to be 241 nM.

On to `N#Cc1cncc(COc2cc(OCc3cccc(-c4cccc5c4cnn5CCCCN4CC[C@@H](O)C4)c3Br)c(Cl)cc2CN[C@@H](CO)C(=O)O)c1` [Compound 8], for which the EC50 was 1160 nM.

As to `CC(CO)(CO)NCc1cc(Cl)c(OCc2cccc(-c3cccc4c3cnn4CCCN3CC[C@@H](O)C3)c2Br)cc1OCc1cncc(C#N)c1` [Compound 11], the EC50 was found to be 142 nM.

Consider `N#Cc1cncc(COc2cc(OCc3cccc(-c4cccc5c4cnn5CC4CCC(N5CC[C@@H](O)C5)CC4)c3Br)c(Cl)cc2CN[C@@H](CO)C(=O)O)c1` (stereo partly shown) [Compound 20], for which the EC50 is 876 nM.

In the case of `N#Cc1cncc(COc2cc(OCc3cccc(-c4cccc5c4cnn5CCCN4CC[C@@H](O)C4)c3Br)c(Cl)cc2CN[C@@H](CO)C(=O)O)c1` [Compound 32], the EC50 stood at 724 nM.

On to `CC(CO)(CO)NCc1cc(Cl)c(OCc2cccc(-c3cccc4c3cnn4CCCN3CC[C@@H](O)C3)c2Br)cc1OCc1cncc(C#N)c1` [Compound 33], for which the EC50 is over 370 nM.
